Test results published in patent US20100298141A1, “SUBSTITUTED PYRIDINE N-OXIDE HERBICIDES” (E. I. DU PONT DE NEMOURS AND COMPANY, priority 2007, published 2010).

What was measured:
barnyardgrass [1] = test: Test A pre-/postemergence greenhouse test; format: in vivo, Echinochloa crus-galli; conditions: for Plant response rating, Barnyardgrass: 0 to 100 scale where 0 is no effect and 100 is complete control; for Barnyardgrass plant response rating: 0 to 100 scale
In short: (§1)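 Visual injury ratings, made relative to untreated controls roughly ten days after treatment, cover both preemergence and postemergence application. Compounds in a surfactant-containing non-phytotoxic solvent were sprayed onto the soil surface after sowing and, simultaneously, onto young plants at the one- to two-leaf stage.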

crabgrass = test: Test A pre-/postemergence greenhouse test; format: in vivo, Digitaria sanguinalis; conditions: for Plant response rating, Crabgrass, Large: 0 to 100 scale where 0 is no effect and 100 is complete control; for Crabgrass, Large plant response rating: 0 to 100 scale
In short: as §1

giant foxtail = test: Test A pre-/postemergence greenhouse test; format: in vivo, Setaria faberi; conditions: for Plant response rating, Foxtail, Giant: 0 to 100 scale where 0 is no effect and 100 is complete control; for Foxtail, Giant plant response rating: 0 to 100 scale
In short: as §1

morningglory = test: Test A pre-/postemergence greenhouse test; format: in vivo, Ipomoea spp.; conditions: for Plant response rating, Morningglory: 0 to 100 scale where 0 is no effect and 100 is complete control; for Morningglory plant response rating: 0 to 100 scale
In short: as §1

redroot pigweed = test: Test A pre-/postemergence greenhouse test; format: in vivo, Amaranthus retroflexus; conditions: for Plant response rating, Pigweed: 0 to 100 scale where 0 is no effect and 100 is complete control; for Pigweed plant response rating: 0 to 100 scale
In short: as §1

velvetleaf = test: Test A pre-/postemergence greenhouse test; format: in vivo, Abutilon theophrasti; conditions: for Plant response rating, Velvetleaf: 0 to 100 scale where 0 is no effect and 100 is complete control; for Velvetleaf plant response rating: 0 to 100 scale
In short: as §1

wheat = test: Test A pre-/postemergence greenhouse test; format: in vivo, Triticum aestivum; conditions: for Plant response rating, Wheat: 0 to 100 scale where 0 is no effect and 100 is complete control; for Wheat plant response rating: 0 to 100 scale
In short: as §1

corn = test: Test A pre-/postemergence greenhouse test; format: in vivo, Zea mays; conditions: for Plant response rating, Corn: 0 to 100 scale where 0 is no effect and 100 is complete control; for Corn plant response rating: 0 to 100 scale
In short: as §1

rice = test: Test C flooded paddy test; format: in vivo, Oryza sativa; conditions: Flood
In short: (§2)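 In-water treatment: compound dosed into 3 cm flood over soil, water level unchanged throughout. Controls run alongside; visual assessment at day 13–15.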

umbrella sedge = test: Test C flooded paddy test; format: in vivo, Cyperus difformis; conditions: Flood
In short: as §2

duck salad = test: Test C flooded paddy test; format: in vivo, Heteranthera limosa; conditions: Flood
In short: as §2

barnyardgrass [2] = test: Test C flooded paddy test; format: in vivo, Echinochloa crus-galli; conditions: Flood
In short: as §2

[3] = Postemergence, 500 g ai/ha, 0 is no effect, 100 is complete control
[4] = Preemergence, 125 g ai/ha, 0 no effect, 100 complete control
[5] = Preemergence, 500 g ai/ha, 0 no effect, 100 complete control
[6] = 31 g ai/ha, scale 0 to 100 (0 no effect, 100 complete control)
[7] = 62 g ai/ha, scale 0 to 100 (0 no effect, 100 complete control)
[8] = 125 g ai/ha, scale 0 to 100, 0 no effect, 100 complete control, 13 to 15 days
[9] = 250 g ai/ha, scale 0 to 100, 0 no effect, 100 complete control, 13 to 15 days

SMILES: CC(C)c1cc[n+]([O-])c(S(=O)(=O)Cc2c(C(F)(F)F)nn(C)c2OC(F)F)c1 [Compound 110]
- Plant response rating, Barnyardgrass (barnyardgrass [1]; Postemergence, 125 g ai/ha): 60
- Barnyardgrass plant response rating (barnyardgrass [1]; [3]): 80
- Barnyardgrass plant response rating (barnyardgrass [1]; [4]): 90
- Barnyardgrass plant response rating (barnyardgrass [1]; [5]): 100
- Plant response rating, Crabgrass, Large (crabgrass; Postemergence, 125 g ai/ha): 70
- Crabgrass, Large plant response rating (crabgrass; [3]): 90
- Crabgrass, Large plant response rating (crabgrass; [4]): 50
- Crabgrass, Large plant response rating (crabgrass; [5]): 100
- Plant response rating, Foxtail, Giant (giant foxtail; Postemergence, 125 g ai/ha): 80
- Foxtail, Giant plant response rating (giant foxtail; [3]): 90
- Foxtail, Giant plant response rating (giant foxtail; [4]): 80
- Foxtail, Giant plant response rating (giant foxtail; [5]): 100
- Plant response rating, Morningglory (morningglory; Postemergence, 125 g ai/ha): 40
- Morningglory plant response rating (morningglory; [3]): 100
- Morningglory plant response rating (morningglory; [4]): 60
- Morningglory plant response rating (morningglory; [5]): 100
- Plant response rating, Pigweed (redroot pigweed; Postemergence, 125 g ai/ha): 70
- Pigweed plant response rating (redroot pigweed; [3]): 80
- Pigweed plant response rating (redroot pigweed; [4]): 80
- Pigweed plant response rating (redroot pigweed; [5]): 100
- Plant response rating, Velvetleaf (velvetleaf; Postemergence, 125 g ai/ha): 60
- Velvetleaf plant response rating (velvetleaf; [3]): 80
- Velvetleaf plant response rating (velvetleaf; [4]): 50
- Velvetleaf plant response rating (velvetleaf; [5]): 100
- Plant response rating, Wheat (wheat; Postemergence, 125 g ai/ha): 20
- Wheat plant response rating (wheat; [3]): 60
- Wheat plant response rating (wheat; [4]): 30
- Wheat plant response rating (wheat; [5]): 70
- Plant response rating, Corn (corn; Postemergence, 125 g ai/ha): 0
- Corn plant response rating (corn; [3]): 60
- Corn plant response rating (corn; [4]): 0
- Corn plant response rating (corn; [5]): 60
- Plant response rating, Rice (rice; [6]): 0
- Plant response rating, Rice (rice; [7]): 0
- Plant response rating, Rice (rice; [8]): 0
- Plant response rating, Rice (rice; [9]): 0
- Plant response rating, Sedge, Umbrella (umbrella sedge; [6]): 0
- Plant response rating, Sedge, Umbrella (umbrella sedge; [7]): 0
- Plant response rating, Sedge, Umbrella (umbrella sedge; [8]): 0
- Plant response rating, Sedge, Umbrella (umbrella sedge; [9]): 30
- Plant response rating, Ducksalad (duck salad; [6]): 0
- Plant response rating, Ducksalad (duck salad; [7]): 0
- Plant response rating, Ducksalad (duck salad; [8]): 50
- Plant response rating, Ducksalad (duck salad; [9]): 75
- Plant response rating, Barnyardgrass (barnyardgrass [2]; [6]): 0
- Plant response rating, Barnyardgrass (barnyardgrass [2]; [7]): 0
- Plant response rating, Barnyardgrass (barnyardgrass [2]; [8]): 0
- Plant response rating, Barnyardgrass (barnyardgrass [2]; [9]): 0

SMILES: Cc1cc[n+]([O-])c([S+]([O-])Cc2c(C(F)(F)C(F)(F)F)nn(C)c2OCC(F)(F)F)c1 (stereo not shown) [Compound 91]
- Plant response rating, Barnyardgrass (barnyardgrass [1]; Postemergence, 125 g ai/ha): 70
- Barnyardgrass plant response rating (barnyardgrass [1]; [3]): 90
- Barnyardgrass plant response rating (barnyardgrass [1]; [4]): 20
- Plant response rating, Barnyardgrass (barnyardgrass [1]; Preemergence, 500 g ai/ha): 100
- Plant response rating, Crabgrass, Large (crabgrass; Postemergence, 125 g ai/ha): 50
- Crabgrass, Large plant response rating (crabgrass; [3]): 80
- Crabgrass, Large plant response rating (crabgrass; [4]): 20
- Plant response rating, Crabgrass, Large (crabgrass; Preemergence, 500 g ai/ha): 100
- Plant response rating, Foxtail, Giant (giant foxtail; Postemergence, 125 g ai/ha): 80
- Foxtail, Giant plant response rating (giant foxtail; [3]): 90
- Foxtail, Giant plant response rating (giant foxtail; [4]): 90
- Plant response rating, Foxtail, Giant (giant foxtail; Preemergence, 500 g ai/ha): 100
- Plant response rating, Morningglory (morningglory; Postemergence, 125 g ai/ha): 20
- Morningglory plant response rating (morningglory; [3]): 100
- Morningglory plant response rating (morningglory; [4]): 40
- Plant response rating, Morningglory (morningglory; Preemergence, 500 g ai/ha): 100
- Plant response rating, Pigweed (redroot pigweed; Postemergence, 125 g ai/ha): 50
- Pigweed plant response rating (redroot pigweed; [3]): 60
- Pigweed plant response rating (redroot pigweed; [4]): 90
- Plant response rating, Pigweed (redroot pigweed; Preemergence, 500 g ai/ha): 100
- Plant response rating, Velvetleaf (velvetleaf; Postemergence, 125 g ai/ha): 30
- Velvetleaf plant response rating (velvetleaf; [3]): 80
- Velvetleaf plant response rating (velvetleaf; [4]): 0
- Velvetleaf plant response rating (velvetleaf; [5]): 100
- Plant response rating, Wheat (wheat; Postemergence, 125 g ai/ha): 60
- Wheat plant response rating (wheat; [3]): 80
- Wheat plant response rating (wheat; [4]): 40
- Wheat plant response rating (wheat; [5]): 100
- Plant response rating, Corn (corn; Postemergence, 125 g ai/ha): 20
- Corn plant response rating (corn; [3]): 80
- Corn plant response rating (corn; [4]): 10
- Plant response rating, Corn (corn; Preemergence, 500 g ai/ha): 90
- Plant response rating, Rice (rice; [7]): 0
- Plant response rating, Rice (rice; [9]): 70
- Plant response rating, Sedge, Umbrella (umbrella sedge; [7]): 75
- Plant response rating, Sedge, Umbrella (umbrella sedge; [9]): 100
- Plant response rating, Ducksalad (duck salad; [7]): 45
- Plant response rating, Ducksalad (duck salad; [9]): 100
- Plant response rating, Barnyardgrass (barnyardgrass [2]; [7]): 0
- Plant response rating, Barnyardgrass (barnyardgrass [2]; [9]): 70
